Assay results as given in patent US11478526B2, “Methods of reducing neuroinflammation or toxicity induced by amyloid beta (abeta) using glucocorticoid induced leucine zipper (GILZ) analog peptides” (INDIANA UNIVERSITY RESEARCH AND TECHNOLOGY CORPORATION, priority 2016, dated 2022).

Assays:
[1] = LD50 predicted from in-vitro IC50 by regression (Speilmann method); settings: for LD50 estimated from IC50: Log (LD50)=0.506×(log IC50)+0.475, body weight; for LD50 (mM): score 1/0
Method: Lactate dehydrogenase (LDH) assay: To detect direct GA-induced cell lysis we performed LDH release assays (Roche Molecular Diagnostics). […] Approximately 5×10^4 U373 cells/well were cultured in 96-well plates in the presence of increasing concentrations of individual GA or control peptide from 0.5 μM to 500 μM. Cells treated with 2% triton-X 100 (Sigma Aldrich, St. Louis, Mo.) for 10 minutes served as positive control. Untreated cells served as controls for spontaneous LDH-release. Specific LDH-release was calculated according to the following formula: LDH-release %=100*(GA or control peptide treated cells—untreated cells)/(positive control-untreated cells). The IC50 values were extrapolated by logarithmic estimation. The LD50 in mg/kg was predicted using the formula, Log (LD50)=0.506×(log IC50)+0.475. […]

[2] = system: primary human fetal brain cells (HFB); experiment: CTG viability of primary human fetal brain cultures with or without Aβ1-42; assay type: cell-based; settings: for viability of Aβ1-42 exposed HFB cells: Aβ1-42 10 μM
Method: Functional assays in human primary mixed brain cultures (HFB). Primary cultures of mixed HFB were prepared from the brain parenchyma of aborted fetuses (80-100 days gestational age). The tissues were obtained from the Birth Defects Research Laboratory (BDRL) at the University of Washington, Seattle with approval from the Indiana University Institutional Review Board (IRB). The IRB determined that the use of anonymous human biological materials received from this depository is not considered as human subjects research (supplementary document, s1). The NIH funded BDRL tissue distribution program operates separately in full compliance with all relevant state and federal laws and regulations with donors providing written informed consent.
Fetal brain materials (10-20 g) were shipped overnight in chilled Hibernate-E medium (Invitrogen) supplemented with B27 (Invitrogen), GlutaMAX (Invitrogen) and antibiotic-antimycotic solution (Cellgro). HFB were prepared and cultured as described. Briefly, cells were cultured in Neurobasal medium (Invitrogen) without phenol red supplemented with 1×B27, […] GlutaMAX, 1×antibiotic cocktail, 5 ng/mL recombinant fibroblast growth factor 2 (bFGF) (Invitrogen), and 2 μL/mL Normocin (InVivoGen, San Diego, Calif., USA). Cells were counted and seeded onto poly-D-lysine (Sigma-Aldrich) coated 24-well plates (Corning, Lowell, Mass., USA) at 1.5×10^5 cells per well and maintained at 37° C. in a 5% CO2 incubator. Half media changes were performed every 4th day of culture and morphology was monitored via phase contrast microscopy. Culture medium was removed from cells on day 17 (DIV17) and replaced with Neurobasal medium with B27. […] Cells and conditioned media were harvested and stored for further analysis. Relative ATP concentration was measured using the CTG kit (Promega). Data is presented as ΔRLU=RLU of Aβ1-42 exposed cells-RLU unexposed cells. Conditioned media collected were assessed for specific cytokines using the OptEIA kits (BD Biosciences). Nuclear and cytoplasmic fractions were extracted using the CelLytic™ NuCLEAR™ Extraction Kit (Sigma) following manufacturer's protocol. Five microgram of nuclear extracts was incubated in a 96-well plate coated with oligonucleotides containing the NF-κβ consensus nucleotide sequence (5′-[…]-3′) (SEQ ID NO: 30). The activated NF-κβ bound to DNA was detected by anti-p65 antibody followed by a peroxidase coupled secondary antibody and substrate using the TransAM kit protocol (Active Motif). Nuclear extracts of Raji cells was used as the positive control.
Select PGA protects against Aβ1-42 induced toxicity, prevents p65 activation and cytokine response in human fetal brain (HFB) cells. […] Viability in terms of relative luminescent Units (RLU) was quantified using a Glowmax luminometer (Promega, Wis.). Data are presented as ARLU=RLU of Aβ1-42 exposed cells-RLU of unexposed cells. […] The mean RLU of vehicle treated HFB varied between 7352.75+/−1265.2 and 16157.5+/−4950. Average RLU of cultures exposed to Aβ1-42 varied between 6067.25+/−903.05 and 11574.25+/−4139.3 in different experiments. […] The culture supernatants were assessed for cytokines by ELISA (R&D Systems, Minn.). […] Primary HFB cultured similarly and harvested at the end of 4 hours was assessed for nuclear p65 using TransAM kit for NF-κB p65 (Active Motif, Calif.).

[3] = system: LPS induced neuroinflammation; experiment: LPS induced neuroinflammation: real time PCR of brain tissue; assay type: in vivo, mouse; settings: 25 mg/kg i.v. alternate days, day 7
Method: Animals and lipopolysaccharide induced neuroinflammation: Male C57/6J mice weighing 32 to 37 grams were housed five per cage at a temperature of 22±2° C. with 12 hour light/12 hour dark cycles with free access to laboratory food and water. Lipopolysaccharides (LPS) from Escherichia coli 026:B6, =10,000 EU/mg, purified by phenol extraction was purchased from Sigma (Sigma Aldrich, Mo., USA). The mice were randomly divided into seven groups: LPS, LPS+GA-1 or GA-2 or CP-1 or CP-2 or CP-3 or TAT. The LPS was administered intraperitoneally at […] in 100 μl of sterile saline followed by corn oil in the morning daily for six days. The GA or CP was administered intravenously at 25 mg/kg in 100 μl of sterile saline on alternate days. Additional control group included mice receiving saline alone. All animals were sacrificed on day 7.
Real time polymerase chain reaction. Total cellular RNA was isolated from each brain tissue using Qiagen kit (Invitrogen, Carlsbad, Calif.) following manufacturer's protocol and reverse transcribed using iScript cDNA synthesis kit (Biorad, Calif.). Equal amount of cDNA measured by the Nanodrop (ThermoFisher Scientific, Waltham, USA) was used for amplification of IL-1β, IL-12, CD14, BclXL and Bcl2. Real time PCR was performed using SYBR green/ROX qPCR master mix (SA Biosciences, Frederick, Md.) on the ABI Prism 7000 sequence detection system (Applied Biosystem, Foster City, Calif., USA). Each reaction contains 2×12.5 μl of master mix, 1 μl of 10 μM of primers and 50 ng of the cDNA, to a total volume of 25 μl. The thermal cycling conditions included an initial denaturation step at 50° C. for 2 min, 95° C. for 3 min, 39 cycles at 95° C. for 30 s, annealing temperature at 62° C. for 30 s and extension at 72° C. for 30 s.
The gene specific threshold cycle (Ct) for each sample (ΔCt) was corrected by subtracting the Ct for the housekeeping gene β-actin. Untreated controls were chosen as the reference samples. The ΔCt for all experimental samples was subtracted by the ΔCt for the control samples (ΔΔCt).The difference in each gene specific threshold between the sample from vehicle treated and GA or CP treated cells was determined to obtain the relative change in the specific mRNA. The magnitude of change in the mRNA was expressed as 2^−ΔΔCt. Each measurement of a sample was performed in duplicates.

[4] = system: differentiated SK-N-SH neuroblastoma cells; experiment: Cellular morphology and CTG viability in differentiated neuroblasts; settings: 50 μM or 500 μM, 24 hours; for cell morphology: phase contrast
Method: Cell Titer-Glo (CTG) luminescent cell viability assay: Human neuroblastoma (SK-N-SH) cells cultured in minimal essential medium (MEM) supplemented with 1% fetal bovine serum (FBS) and 1% penicillin (100 U/ml)/streptomycin (100 μg/ml) were differentiated with 10 μM all-trans retinoic acid for 7 days. After resting for 24 hours in the low serum medium, the cells were seeded in 24 well (10^5 cells/well) culture plates in fresh medium and incubated with 50 μM or 500 μM of individual GA or control peptide for additional 24 hours. The cultures were then photographed using a phase contrast Leica microscope (Leica Microsystems Inc, Buffalogrove, Ill.). Subsequently, the cells were harvested, lysed with lysis buffer (M-PER, Pierce) and the lysate was assessed for metabolic activity using the luciferase based CTG assay (CTG, Promega, Madison, Wis.). Briefly, cell lysate (5 μL) in 25 μL of phosphate buffered saline was transferred to an opaque white 96-well plate, and then 30 μL of CTG assay solution was added. The relative luminescent signal (RLT) was quantified using a Glowmax luminometer (Promega).

[5] = molecular target: T1, Recombinant human p65 protein (r-p65) (Homo sapiens, UniProt Q04206); experiment: Plate binding ELISA of GA/PGA with r-p65 (KD by method of Friguet)
T1 construct: purchased Ori-Gene Technologies Inc., Rockville, Md; TP320780
Method: We used similar method to determine direct binding kinetics of GA hexapeptides with human r-p65. […] Absorbance at 650 nm was measured with a mixing time of 30 s using BIORAD microplate reader. […] The dissociation constant of the interaction between the GA or the control peptide and r-p65 was determined by the method of Friguet et al., as described. A fraction of the bound r-p65 (x) and the ratio of bound r-p65 to the free GA or control peptide (y) was determined by the equations: x=(A0−A)/(A0), where A0 is the absorbance of r-p65anti-p65 complex in the absence of bound GA or control peptide and y=(A0−A)/(a0−i0)×(A0−A)/(A0), where a0 is the total concentration of GA or control peptide and i0 is the total concentration of r-p65.
Kinetics of PGA:-p65 interaction: The binding kinetics of top five PGA with full length human r-p65 was assessed as described. Plate bound GILZ-P or PGA at increasing concentrations was probed with r-p65-DDK (Ori-Gene Technologies Inc., Rockville, Md.) at constant concentration and detected with anti-DDK.

U373 cells [6] = assay type: cell-based, human; settings: Example 9, PGA synthesized with TAT; read-out: IC50 of LDH release extrapolated from regression analysis
Method: Lactate dehydrogenase (LDH) assay: To detect direct GA-induced cell lysis we performed LDH release assays (Roche Molecular Diagnostics). […] Approximately 5×10^4 U373 cells/well were cultured in 96-well plates in the presence of increasing concentrations of individual GA or control peptide from 0.5 μM to 500 μM. Cells treated with 2% triton-X 100 (Sigma Aldrich, St. Louis, Mo.) for 10 minutes served as positive control. Untreated cells served as controls for spontaneous LDH-release. Specific LDH-release was calculated according to the following formula: LDH-release %=100*(GA or control peptide treated cells—untreated cells)/(positive control-untreated cells). The IC50 values were extrapolated by logarithmic estimation. The LD50 in mg/kg was predicted using the formula, Log (LD50)=0.506×(log IC50)+0.475.
Effects of PGA on membrane integrity and apoptosis: The top five PGA were covalently synthesized with the cell penetrating TAT (transcriptional transactivation) peptide to facilitate intracellular delivery (Genescript, N.J.). Membrane integrity of U373 microglial cells exposed to increasing concentration of each PGA from 0.5 μm to 500 μM was assessed by the leakage of intracellular lactate dehydrogenase (LDH) into culture medium (Roche, Ind.).

U373 cells [7] = experiment: Annexin-V and propidium iodide apoptosis by flow cytometry; assay type: cell-based, human; settings: score 1/0
Method: Detection apoptosis by flow cytometry: To further assess cell cytotoxicity, the apoptotic effects of individual GA or control peptide was evaluated by the Annexin-V and propidium iodide (PI) dual staining method (Annexin-V-Fluos staining kit, Roche Diagnostics, Mannheim, Germany). As opposed to apoptotic cells, necrotic cells with ruptured cell membrane take up PI, the DNA binding dye. Thus, cells which take up both fluorochromes are a mixture of apoptotic and necrotic cells, whereas cells that exclude PI but bind Annexin V are (early) apoptotic cells. U373 cells cultured with varying concentrations of individual GA or control peptide (0.5 μM to 50 μM) for 24 hours were centrifuged and suspended in 100 μl of Annexin V/PI labelling solution (20 μl each of Annexin-V-Fluos labelling reagent and PI in 1 ml of binding buffer) for 15 min at room temperature. After washing the cells were resuspended in PBS:1% paraformaldehyde and analyzed using a FACScan flow cytometer (BD Biosciences, San Jose, Calif.).

Aβ1-42 exposed HFB cells = experiment: Cytokines in culture medium of Aβ1-42 exposed HFB; assay type: cell-based, human; settings: PGA at IC50 concentration
[8] = dissociation constant, KD, method of Friguet et al.

T1 sequence (Q04206 whole entry): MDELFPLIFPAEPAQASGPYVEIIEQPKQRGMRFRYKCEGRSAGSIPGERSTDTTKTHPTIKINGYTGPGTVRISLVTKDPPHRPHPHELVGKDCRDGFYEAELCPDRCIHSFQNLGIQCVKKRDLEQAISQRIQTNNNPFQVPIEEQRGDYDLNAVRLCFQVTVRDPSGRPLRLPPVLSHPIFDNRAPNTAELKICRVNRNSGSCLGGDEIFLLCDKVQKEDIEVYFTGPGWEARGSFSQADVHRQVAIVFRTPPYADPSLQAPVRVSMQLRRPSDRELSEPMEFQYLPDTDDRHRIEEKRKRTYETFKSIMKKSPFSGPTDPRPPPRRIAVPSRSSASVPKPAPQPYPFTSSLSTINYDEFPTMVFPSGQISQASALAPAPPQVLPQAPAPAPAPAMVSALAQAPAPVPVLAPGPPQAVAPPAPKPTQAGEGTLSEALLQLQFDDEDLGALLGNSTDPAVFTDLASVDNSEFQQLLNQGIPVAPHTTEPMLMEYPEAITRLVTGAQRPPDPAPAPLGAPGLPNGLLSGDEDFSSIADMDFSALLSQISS

Substance	LD50 estimated from IC50 [1] [mg/kg]	tolerance of HFB cultures (Δ-RLU, CTG) ([2]; 50 μM peptide)	relative expression of BCl2 in brain tissues [3]	relative expression of BclXL in brain tissues [3]	relative expression of CD14 mRNA in brain tissues [3]	cellular metabolic activity / viability (CTG assay) [4]	cell morphology [4]	Kd ([5]; KD (uM), score 1/0) [µM]	Kd [5, 8] [µM]	IC50 (U373 cells [6]) [µM]	% apoptosis at LD50 (U373 cells [7])	LD50 (mM) [1]	tolerance of HFB cultures (ΔRLU, CTG) ([2]; PGA at IC50 concentration)	AIL-1p concentration in culture supernatant (not shown) (Aβ1-42 exposed HFB cells)	AIL-6 concentration in culture supernatant (Aβ1-42 exposed HFB cells)	viability of Aβ1-42 exposed HFB cells ([2]; 50 μM peptide, vs untreated Aβ1-42 exposed cultures)	viability of Aβ1-42 exposed HFB cells ([2]; PGA at IC50 concentration, 24 hours)
Ac-APKPYQPRG-NH2 [CP-3]	237.62	significant toxicity	0.44+/−0.9	0.13+/−0.1	1.2+/−0.1	reduced the viability of the cells at both concentrations tested	morphological changes consistent with cell death	–	–	–	–	–	–	–	–	–	–
Ac-APKPYQPRG-NH2 [PGA-1]	–	–	–	–	–	–	–	> 3	4.28	2.27	0 (>25)	0 (<100)	significant toxicity	–	–	–	–
Ac-EPAPEQPDG-NH2 [CP-2]	237.52	significant toxicity	0.45+/−0.9	–	2.4+/−2	did not adversely affect the differentiated neuroblastoma cells	no apparent adverse effects on morphology	–	–	–	–	–	–	–	–	–	–
Ac-EPAPEQPDG-NH2 [PGA-5]	–	–	–	–	–	–	–	> 3	3.4	2	0 (>25)	1 (>100)	significant toxicity	significantly lower	significantly lower	–	–
Ac-EPAPYQPEG-NH2 [CP-1]	272.78	–	0.36+/−0.8	0.06+/−0.08	1+/−0.3	did not adversely affect the differentiated neuroblastoma cells	no apparent adverse effects on morphology	–	–	–	–	–	–	–	–	not significant	–
Ac-EPAPYQPEG-NH2 [PGA-3]	–	–	–	–	–	–	–	> 3	3.27	0.98	1 (<25)	1 (>100)	well tolerated	–	–	–	significantly higher
